Laboratory results published in PubChem BioAssay (NCI).
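Cultured in 96-well plates, cells were exposed to test compound for 48 hours across five concentrations. At the GI50, growth is halved. TGI marks complete inhibition of growth.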

What was measured:
Experiment in all cases: NCI anticancer screen, dose series, 48 h
786-0 renal = tested on: 786-0 renal
A498 renal = tested on: A498 renal
A549 NSCLC = tested on: A549 NSCLC
ACHN renal = tested on: ACHN renal
BT-549 breast = tested on: BT-549 breast
CAKI-1 renal = tested on: CAKI-1 renal
CCRF-CEM leukemia = tested on: CCRF-CEM leukemia
COLO 205 colon = tested on: COLO 205 colon
DU-145 prostate = tested on: DU-145 prostate
EKVX NSCLC = tested on: EKVX NSCLC
HCC-2998 colon = tested on: HCC-2998 colon
HCT-116 colon = tested on: HCT-116 colon
HCT-15 colon = tested on: HCT-15 colon
HL-60(TB) leukemia = tested on: HL-60(TB) leukemia
HOP-62 NSCLC = tested on: HOP-62 NSCLC
HOP-92 NSCLC = tested on: HOP-92 NSCLC
HS 578T breast = tested on: HS 578T breast
HT29 colon = tested on: HT29 colon
IGROV1 ovarian = tested on: IGROV1 ovarian
K-562 leukemia = tested on: K-562 leukemia
KM12 colon = tested on: KM12 colon
LOX IMVI melanoma = tested on: LOX IMVI melanoma
M14 melanoma = tested on: M14 melanoma
MALME-3M melanoma = tested on: MALME-3M melanoma
MCF7 breast = tested on: MCF7 breast
MDA-MB-231 breast = tested on: MDA-MB-231 breast
MDA-MB-435 = tested on: MDA-MB-435
MOLT-4 leukemia = tested on: MOLT-4 leukemia
NCI-H226 lung = tested on: NCI-H226 lung
NCI-H23 lung = tested on: NCI-H23 lung
NCI-H460 lung = tested on: NCI-H460 lung
NCI-H522 lung = tested on: NCI-H522 lung
NCI/ADR-RES ovarian = tested on: NCI/ADR-RES ovarian
OVCAR-3 ovarian = tested on: OVCAR-3 ovarian
OVCAR-4 ovarian = tested on: OVCAR-4 ovarian
OVCAR-5 ovarian = tested on: OVCAR-5 ovarian
OVCAR-8 ovarian = tested on: OVCAR-8 ovarian
PC-3 prostate = tested on: PC-3 prostate
RPMI-8226 leukemia = tested on: RPMI-8226 leukemia
RXF 393 renal = tested on: RXF 393 renal
SF-268 CNS = tested on: SF-268 CNS
SF-295 CNS = tested on: SF-295 CNS
SF-539 CNS = tested on: SF-539 CNS
SK-MEL-2 melanoma = tested on: SK-MEL-2 melanoma
SK-MEL-28 melanoma = tested on: SK-MEL-28 melanoma
SK-MEL-5 melanoma = tested on: SK-MEL-5 melanoma
SK-OV-3 ovarian = tested on: SK-OV-3 ovarian
SN12C renal = tested on: SN12C renal
SNB-19 CNS = tested on: SNB-19 CNS
SNB-75 CNS = tested on: SNB-75 CNS
SR leukemia = tested on: SR leukemia
SW-620 colon = tested on: SW-620 colon
T-47D breast = tested on: T-47D breast
TK-10 renal = tested on: TK-10 renal
U251 CNS = tested on: U251 CNS
UACC-257 melanoma = tested on: UACC-257 melanoma
UACC-62 melanoma = tested on: UACC-62 melanoma
UO-31 renal = tested on: UO-31 renal

Oc1[nH]c(N=C2N=c3ccccc3=N2)c2ccccc12
GI50 (786-0 renal): 17.2 µM
TGI (786-0 renal): 39.6 µM
GI50 (A498 renal): 6.31 µM
TGI (A498 renal): 19.9 µM
GI50 (A549 NSCLC): 8.67 µM
TGI (A549 NSCLC): 41.1 µM
GI50 (ACHN renal): 12.3 µM
TGI (ACHN renal): 29 µM
GI50 (BT-549 breast): 16.7 µM
TGI (BT-549 breast): 54.5 µM
GI50 (CAKI-1 renal): 2.95 µM
TGI (CAKI-1 renal): 21.7 µM
GI50 (CCRF-CEM leukemia): 1.48 µM
TGI (CCRF-CEM leukemia): 27.8 µM
GI50 (COLO 205 colon): 6.39 µM
TGI (COLO 205 colon): 20.5 µM
GI50 (DU-145 prostate): 10.3 µM
TGI (DU-145 prostate): 22.6 µM
GI50 (EKVX NSCLC): 4.22 µM
TGI (EKVX NSCLC): 52.2 µM
GI50 (HCC-2998 colon): 17.4 µM
TGI (HCC-2998 colon): > 100 µM
GI50 (HCT-116 colon): 7.3 µM
TGI (HCT-116 colon): 29.5 µM
GI50 (HCT-15 colon): 3.54 µM
TGI (HCT-15 colon): > 100 µM
GI50 (HL-60(TB) leukemia): 13.7 µM
TGI (HL-60(TB) leukemia): 52.9 µM
GI50 (HOP-62 NSCLC): 10.1 µM
TGI (HOP-62 NSCLC): 22.9 µM
GI50 (HOP-92 NSCLC): 15 µM
TGI (HOP-92 NSCLC): 49 µM
GI50 (HS 578T breast): 10.7 µM
TGI (HS 578T breast): 39.8 µM
GI50 (HT29 colon): 9.18 µM
TGI (HT29 colon): 39.7 µM
GI50 (IGROV1 ovarian): 1.28 µM
TGI (IGROV1 ovarian): 33.7 µM
GI50 (K-562 leukemia): 9.86 µM
TGI (K-562 leukemia): > 100 µM
GI50 (KM12 colon): 11.5 µM
TGI (KM12 colon): 42.9 µM
GI50 (LOX IMVI melanoma): 4.78 µM
TGI (LOX IMVI melanoma): 24.9 µM
GI50 (M14 melanoma): 12.2 µM
TGI (M14 melanoma): 38.8 µM
GI50 (MALME-3M melanoma): 9.69 µM
TGI (MALME-3M melanoma): 37.6 µM
GI50 (MCF7 breast): 2.65 µM
TGI (MCF7 breast): 23.7 µM
GI50 (MDA-MB-231 breast): 15.2 µM
TGI (MDA-MB-231 breast): 46.2 µM
GI50 (MDA-MB-435): 12.4 µM
TGI (MDA-MB-435): 69.4 µM
GI50 (MOLT-4 leukemia): 3.28 µM
TGI (MOLT-4 leukemia): 29.5 µM
GI50 (NCI-H226 lung): 10.4 µM
TGI (NCI-H226 lung): 30 µM
GI50 (NCI-H23 lung): 7.29 µM
TGI (NCI-H23 lung): 52.6 µM
GI50 (NCI-H460 lung): 3.01 µM
TGI (NCI-H460 lung): 21 µM
GI50 (NCI-H522 lung): 11.2 µM
TGI (NCI-H522 lung): 41.6 µM
GI50 (NCI/ADR-RES ovarian): 3.87 µM
TGI (NCI/ADR-RES ovarian): 30.1 µM
GI50 (OVCAR-3 ovarian): 5.16 µM
TGI (OVCAR-3 ovarian): 19.2 µM
GI50 (OVCAR-4 ovarian): 6.84 µM
TGI (OVCAR-4 ovarian): 24 µM
GI50 (OVCAR-5 ovarian): 20.4 µM
TGI (OVCAR-5 ovarian): 68.1 µM
GI50 (OVCAR-8 ovarian): 11.4 µM
TGI (OVCAR-8 ovarian): 46.4 µM
GI50 (PC-3 prostate): 6.34 µM
TGI (PC-3 prostate): 73.8 µM
GI50 (RPMI-8226 leukemia): 14.9 µM
TGI (RPMI-8226 leukemia): 72.1 µM
GI50 (RXF 393 renal): 8.85 µM
TGI (RXF 393 renal): 22.2 µM
GI50 (SF-268 CNS): 11.6 µM
TGI (SF-268 CNS): 50.8 µM
GI50 (SF-295 CNS): 3.64 µM
TGI (SF-295 CNS): 26 µM
GI50 (SF-539 CNS): 14.3 µM
TGI (SF-539 CNS): 40.2 µM
GI50 (SK-MEL-2 melanoma): 11.1 µM
TGI (SK-MEL-2 melanoma): 29.7 µM
GI50 (SK-MEL-28 melanoma): 12.8 µM
TGI (SK-MEL-28 melanoma): 33.6 µM
GI50 (SK-MEL-5 melanoma): 8.57 µM
TGI (SK-MEL-5 melanoma): > 100 µM
GI50 (SK-OV-3 ovarian): 12.1 µM
TGI (SK-OV-3 ovarian): 27.7 µM
GI50 (SN12C renal): 12.8 µM
TGI (SN12C renal): 36.7 µM
GI50 (SNB-19 CNS): 15.7 µM
TGI (SNB-19 CNS): 93 µM
GI50 (SNB-75 CNS): 10.9 µM
TGI (SNB-75 CNS): 31.5 µM
GI50 (SR leukemia): 5.46 µM
TGI (SR leukemia): 41.6 µM
GI50 (SW-620 colon): 10.6 µM
TGI (SW-620 colon): 32.4 µM
GI50 (T-47D breast): 8.27 µM
TGI (T-47D breast): 85.8 µM
GI50 (TK-10 renal): 21 µM
TGI (TK-10 renal): 55.4 µM
GI50 (U251 CNS): 3.4 µM
TGI (U251 CNS): 42.3 µM
GI50 (UACC-257 melanoma): 13.7 µM
TGI (UACC-257 melanoma): > 100 µM
GI50 (UACC-62 melanoma): 11.8 µM
TGI (UACC-62 melanoma): 36 µM
GI50 (UO-31 renal): 4.58 µM
TGI (UO-31 renal): 18.6 µM
